Here are results for 11 molecules from article PMC9645637 (PLOS ONE, 2022).

For data set [1], the system named is An. gambiae (COGS) larvae. Kind of data set: Larvicidal assay (WHO bioassay for mosquito larvicides). As to conditions: Anopheles gambiae, read-out: Larvicidal LC50 (95% confidence interval range). An excerpt: (§1) The laboratory-reared colonies of An. funestus (FUMOZ), An. arabiensis (KWAG), An. gambiae (COGS) and An. coluzzii (G3) were used for larvicidal and AChE screening assays. These are common Anopheles species responsible for malaria transmission in Africa. These colonies were maintained under standard insectary conditions as reported by Hunt et al. and Zengenene et al.. FUMOZ was first collected from Mozambique in 2000 and has a low-level intensity of pyrethroid and carbamate resistance. KWAG was collected from KwaZulu-Natal (South Africa) in 2005 and has shown resistance to pyrethroids and the organochloride, dichloro-diphenyl-trichloroethane (DDT).
(§2) The incubation mixture was performed in a total volume of 250 mL of deionized water under 27°C and humidity ≥78%. The test compounds were dissolved in DMSO and assessed for larvicidal activity at 10 times increasing concentrations from 0.0005 μM to 500 μM. Propoxur, a standard larvicide and an AChE agent, was used as a positive control, while DMSO was employed for the negative vehicle control. Larval mortality was recorded in 24, 48 and 72 hours and larvae were fed with protein dog food at day 0 and after every mortality counting.
(§3) All in vitro and in vivo assays were performed in triplicate.

Data set [2] deals with An. arabiensis (KWAG) larvae. The data set is described as above. As to conditions: for LC50: Anopheles arabiensis, read-out: Larvicidal LC50 (95% confidence interval range).
From the text: as §1, §2, §3

A further data set relates to An. coluzzii (G3) larvae. Described as above. As to conditions: read-out: Larvicidal LC50 (95% confidence interval range); An. coluzzii (G3) third-instar larvae.
From the text: as §1, §2, §3

The subject of data set [3] is An. funestus (FUMOZ) larvae. The description is as above. The conditions noted are these: read-out: Larvicidal LC50 (95% confidence interval range); An. funestus (FUMOZ) third-instar larvae.
From the text: as §1, §2, §3

The target in the next data set is electric eel AChE (Electrophorus electricus, UniProt O42275). Kind of data set: AChE assay (modified Ellman assay), electric eel AChE. The class given is biochemical. The protocol:
(§4) Mosquitoes from the four Anopheles colonies were separately homogenized in Na2HPO4, 1% Triton X-100 (pH 8.0) and used as an enzyme source. Protein content was assessed using the standard Lowry protein assay. The incubation mixture in a 96-well plate consisted of 20 μl of the enzyme in 132 μL of the assay buffer (Na2HPO4, 1% Triton X-100; pH 8.0). […] Ellman’s reagent, 5,5′-dithiobis(2-nitrobenzoic acid) (DTNB), was freshly prepared in sodium phosphate buffer (dibasic; pH 7.0) and 8 μL (0.2 mM) added to the incubation mixture. To initiate the reaction, 20 μL (1 mM) of the AChE substrate, acetylthiocholine iodide was added making a total volume of 200 μL in each well and the absorbance readings were obtained using the UV-Visible spectrophotometer at 412 nm. Propoxur was kept as a positive control on the basis of having both AChE and larvicidal activities, while DMSO was used as a negative control. […] However, the insecticide propoxur was also assessed against this target to determine AChE selectivity between electric eel and Anopheles and subsequent comparison with the test compounds.
as §3

The target in another data set is T1, An. gambiae AChE (Anopheles gambiae, UniProt Q869C3).
T1 construct: Mosquitoes from the four Anopheles colonies were separately homogenized in Na2HPO4, 1% Triton X-100 (pH 8.0) and used as an enzyme source; from tissue; host or cells: whole mosquito homogenate (An. gambiae colony)
T1 sequence (Q869C3 39-737): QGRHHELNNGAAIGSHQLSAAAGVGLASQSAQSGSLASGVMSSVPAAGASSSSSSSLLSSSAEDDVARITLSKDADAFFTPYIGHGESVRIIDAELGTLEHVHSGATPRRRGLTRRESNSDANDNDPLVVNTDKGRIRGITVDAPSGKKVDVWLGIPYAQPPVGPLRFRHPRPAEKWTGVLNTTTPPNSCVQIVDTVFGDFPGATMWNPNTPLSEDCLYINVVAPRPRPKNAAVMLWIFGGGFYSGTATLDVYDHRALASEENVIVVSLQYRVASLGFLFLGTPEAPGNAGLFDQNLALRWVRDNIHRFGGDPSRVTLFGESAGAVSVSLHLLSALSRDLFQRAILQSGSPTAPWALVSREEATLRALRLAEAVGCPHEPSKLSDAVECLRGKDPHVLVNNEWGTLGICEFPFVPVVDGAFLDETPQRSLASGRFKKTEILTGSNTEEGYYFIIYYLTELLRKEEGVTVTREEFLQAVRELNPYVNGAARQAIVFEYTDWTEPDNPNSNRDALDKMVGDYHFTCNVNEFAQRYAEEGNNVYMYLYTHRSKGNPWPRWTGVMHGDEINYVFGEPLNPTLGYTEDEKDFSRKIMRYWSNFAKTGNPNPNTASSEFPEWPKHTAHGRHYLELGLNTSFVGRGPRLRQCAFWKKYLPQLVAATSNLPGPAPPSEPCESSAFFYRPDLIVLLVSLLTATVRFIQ
Put plainly: AChE assay (modified Ellman assay), mosquito homogenate. Format: biochemical. The protocol:
as §4, §3
(Ellman's reagent forms a yellow product with free thiols.)

The next data set deals with An. funestus AChE. The description is as above. Format: biochemical. As to conditions: read-out: Anopheles AChE inhibition IC50 ± SE (95% confidence interval range). The protocol:
as §4, §3

A further data set addresses An. arabiensis AChE (Anopheles gambiae, UniProt Q869C3). The description is as above. The class given is biochemical. The protocol:
as §4, §3

The next data set relates to Artemia franciscana. The conditions noted are these: read-out: Brine shrimp LC50 (95% confidence interval); Artemia franciscana nauplii, 24 h. The protocol: as §3
[4] abbreviates: read-out: Electric eel AChE inhibition IC50 ± SE (95% confidence interval range).
[5] abbreviates: An. gambiae homogenate, read-out: Anopheles AChE inhibition IC50 ± SE (95% confidence interval range).
[6] abbreviates: An. arabiensis homogenate, read-out: Anopheles AChE inhibition IC50 ± SE (95% confidence interval range).

Each structure is given as a SMILES string. Where two headings read alike, the source gives them in different places.

electric eel AChE, sequence (O42275 24-633): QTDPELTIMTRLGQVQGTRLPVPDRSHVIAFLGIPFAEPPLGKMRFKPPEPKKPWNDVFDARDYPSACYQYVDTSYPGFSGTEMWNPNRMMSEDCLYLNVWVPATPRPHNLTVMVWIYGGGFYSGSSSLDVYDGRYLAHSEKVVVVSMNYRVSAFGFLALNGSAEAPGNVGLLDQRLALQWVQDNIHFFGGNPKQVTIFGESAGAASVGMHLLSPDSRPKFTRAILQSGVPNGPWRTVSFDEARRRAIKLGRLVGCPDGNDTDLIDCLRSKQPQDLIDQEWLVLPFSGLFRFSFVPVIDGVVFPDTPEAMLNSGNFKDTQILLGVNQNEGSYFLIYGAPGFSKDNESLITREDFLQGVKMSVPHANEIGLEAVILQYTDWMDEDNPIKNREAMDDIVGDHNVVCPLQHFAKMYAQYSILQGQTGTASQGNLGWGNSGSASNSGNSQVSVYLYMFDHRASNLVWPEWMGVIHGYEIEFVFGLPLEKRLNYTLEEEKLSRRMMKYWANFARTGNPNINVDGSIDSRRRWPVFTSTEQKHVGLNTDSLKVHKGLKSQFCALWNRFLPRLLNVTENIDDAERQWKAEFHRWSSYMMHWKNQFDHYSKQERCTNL
An. arabiensis AChE, sequence (Q869C3 162-698 limits assumed): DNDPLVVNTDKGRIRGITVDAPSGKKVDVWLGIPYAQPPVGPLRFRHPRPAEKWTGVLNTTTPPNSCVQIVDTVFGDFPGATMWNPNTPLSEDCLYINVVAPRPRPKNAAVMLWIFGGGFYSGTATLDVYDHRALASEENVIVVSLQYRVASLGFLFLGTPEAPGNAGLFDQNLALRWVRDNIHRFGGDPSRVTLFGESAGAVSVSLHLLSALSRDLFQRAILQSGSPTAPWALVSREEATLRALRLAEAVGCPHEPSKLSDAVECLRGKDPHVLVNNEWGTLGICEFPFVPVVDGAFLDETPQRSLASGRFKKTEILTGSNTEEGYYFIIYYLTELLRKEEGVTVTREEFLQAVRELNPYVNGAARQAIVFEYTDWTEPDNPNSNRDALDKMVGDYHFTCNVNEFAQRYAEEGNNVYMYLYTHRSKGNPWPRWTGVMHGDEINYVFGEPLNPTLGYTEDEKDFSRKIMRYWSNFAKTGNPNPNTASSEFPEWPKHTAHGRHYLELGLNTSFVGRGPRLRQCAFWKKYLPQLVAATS

For `O=C(NCc1ccncc1)C1CCN(Cc2ccccc2)CC1` [derivative 9, 1-benzyl-N-(pyridine-4-ylmethyl) piperidine-4-carboxamide], the median lethal concentration (LC50) (in [1]; in data set [2]; in the data set on An. coluzzii (G3) larvae; in [3]) was over 100 µM in each case.
For the molecule `O=C(NCCN1CCCCC1)C1CCN(Cc2ccccc2)CC1` [derivative 8, 1-benzyl-N-(2-(piperidin-1-yl)ethyl)piperidine-4-carboxamide], the LC50 is over 100 µM in data set [1], over 100 µM in [2], over 100 µM with An. coluzzii (G3) larvae and 0.8 µM in [3]. Moreover, the IC50 was 88.3 ± 19.9 µM at electric eel AChE (setting [4]), 28.1 ± 6.89 µM at An. gambiae AChE (setting [5]), over 100 µM in the data set with An. funestus AChE and over 100 µM at An. arabiensis AChE (setting [6]).
Turning to `O=C(NCc1cccnc1)C1CCN(Cc2ccccc2)CC1` [derivative 4, 1-benzyl-N-(pyridine-3-ylmethyl) piperidine-4-carboxamide], the 50% lethal concentration (LC50) (in data set [1]; in [2]; with An. coluzzii (G3) larvae; in [3]) was over 100 µM each time.
As to `[K+].[K+].[O]=[Cr](=[O])([O-])[O][Cr](=[O])(=[O])[O-]` [potassium dichromate], in the data set on Artemia franciscana, the LC50 amounted to 0.004 µM.
Turning to `O=C(Nc1nccs1)C1CCN(Cc2ccccc2)CC1` [derivative 2, 1-benzyl-N-(thiazol-2-yl) piperidine-4-carboxamide], the LC50 in data set [1] is over 100 µM; in data set [2], 0.88 µM; with An. coluzzii (G3) larvae, over 100 µM; in [3], over 100 µM. For the same molecule, the “Fold more potent than propoxur for An. arabiensis larval toxicity” value in data set [2] (LC50 ratio versus propoxur) is “about 10 fold”. Moreover, the half-inhibitory concentration (IC50) on electric eel AChE (setting [4]) was 55.7 ± 12 µM; at An. gambiae AChE (setting [5]), over 100 µM; in the data set on An. funestus AChE, over 100 µM; at An. arabiensis AChE (setting [6]), 6.05 ± 2.21 µM.
As to `COc1cc(CCNC(=O)C2CCN(Cc3ccccc3)CC2)cc(OC)c1OC` [derivative 3, 1-benzyl-N-(3,4,5-trimethoxyphenethyl) piperidine-4-carboxamide], the median lethal concentration (LC50) (in [1]; in data set [2]; in the data set on An. coluzzii (G3) larvae; in data set [3]) was over 100 µM in each case.
As to `O=C(NC1CCCc2ccccc21)C1CCN(Cc2ccccc2)CC1` (centres unmarked) [derivative 7, 1-benzyl-N-(1,2,3,4-tetrahydro-naphthalen-1-yl) piperidine-4-carboxamide], the LC50 (in data set [1]; in [2]; in the data set with An. coluzzii (G3) larvae; in data set [3]) was over 100 µM throughout.
Consider `O=C(NCCc1c[nH]cn1)C1CCN(Cc2ccccc2)CC1` [derivative 6, N-[2-(1H-imidazol-4-yl)ethyl]-1-benzylpiperidine-4-carboxamide], for which the LC50 (in [1]; in data set [2]; in the data set on An. coluzzii (G3) larvae; in [3]) was over 100 µM each time.
In the case of `O=C(NCCN1CCOCC1)C1CCN(Cc2ccccc2)CC1` [derivative 1, 1-benzyl-N-(2-morpholinoethyl) piperidine-4-carboxamide], the LC50 is over 100 µM in [1], over 100 µM in [2], over 100 µM in the data set with An. coluzzii (G3) larvae and 2.65 µM in data set [3]. Moreover, the concentration for half-maximal inhibition (IC50) is over 100 µM on electric eel AChE (setting [4]), 48.9 ± 10.5 µM at An. gambiae AChE (setting [5]), over 100 µM with An. funestus AChE and over 100 µM at An. arabiensis AChE (setting [6]).
For `CNC(=O)Oc1ccccc1OC(C)C` [Propoxur, propoxur, reference compound], the LC50 in [1] was determined as 64 µM; in data set [2] it was 8.77 µM; with An. coluzzii (G3) larvae, 62.7 µM; in [3] it was 9.9 µM. Besides, the IC50 on electric eel AChE was 1.28 ± 0.35 µM; at An. gambiae AChE, 26.1 ± 6.21 µM; with An. funestus AChE, 0.89 ± 0.2 µM; on An. arabiensis AChE, 0.78 ± 0.16 µM.
On to `O=C(NCc1ccco1)C1CCN(Cc2ccccc2)CC1` [derivative 5, 1-benzyl-N-(furan-2-ylmethyl) piperidine-4-carboxamide], for which the LC50 was over 100 µM in [1], over 100 µM in data set [2], over 100 µM in the data set with An. coluzzii (G3) larvae and 2.96 µM in [3]. The half-maximal inhibitory concentration (IC50) was over 100 µM on electric eel AChE (setting [4]), 31.4 ± 7.56 µM at An. gambiae AChE (setting [5]), over 100 µM in the data set on An. funestus AChE and over 100 µM on An. arabiensis AChE (setting [6]).

The LC50 is the concentration that kills 50% of the test population. In general, IC50 refers to the concentration at which inhibition is half-maximal.
